Data from publication PMC5218480 (PLoS ONE, 2017).

Tested on: MV-4-11 cells
Test: Gene expression microarray analysis (Affymetrix PrimeView) and GSEA
Assay type: cell-based, human
Set-up: RFU PODN (11730768_x_at) / Fold change /veh PODN (11730768_x_at) / RFU LINC00158 (11744669_a_at) / Fold change /veh LINC00158 (11744669_a_at) / RFU DUSP10 (11751237_a_at) / Fold change /veh DUSP10 (11751237_a_at) / RFU ID3 (11757404_x_at) / Fold change /veh ID3 (11757404_x_at) / RFU PLEKHG5 (11737974_s_at) / Fold change /veh PLEKHG5 (11737974_s_at) / RFU LRRC4B (11730491_at) / Fold change /veh LRRC4B (11730491_at) / RFU GIMAP4 (11747438_a_at) / Fold change /veh GIMAP4 (11747438_a_at) / RFU KRT8 (11758183_x_at) / Fold change /veh KRT8 (11758183_x_at) / RFU CNN1 (11734310_a_at) / Fold change /veh CNN1 (11734310_a_at) / RFU VPS37D (11726825_at) / Fold change /veh VPS37D (11726825_at) / RFU C10orf10 (11716522_x_at) / Fold change /veh C10orf10 (11716522_x_at) / RFU KIR2DL2 /// KIR2DL4 /// KIR2DL5A /// KIR2DL5B /// KIR2DS1 /// KIR2DS2 /// KIR2DS3 /// KIR2DS4 /// KIR3DL3 /// KIR3DL3 /// KIR3DS1 (11738374_at) / Fold change /veh KIR2DL2 /// KIR2DL4 /// KIR2DL5A /// KIR2DL5B /// KIR2DS1 /// KIR2DS2 /// KIR2DS3 /// KIR2DS4 /// KIR3DL3 /// KIR3DL3 /// KIR3DS1 (11738374_at) / RFU C1QL1 (11718748_at) / Fold change /veh C1QL1 (11718748_at) / RFU TMPRSS4 (11747572_a_at) / Fold change /veh TMPRSS4 (11747572_a_at) / RFU HAMP (11756126_x_at) / Fold change /veh HAMP (11756126_x_at) / RFU RNFT2 (11725882_a_at) / Fold change /veh RNFT2 (11725882_a_at) / RFU NR4A2 (11747474_a_at) / Fold change /veh NR4A2 (11747474_a_at) / RFU ABCC12 (11746883_a_at) / Fold change /veh ABCC12 (11746883_a_at) / RFU TMEM136 (11760407_x_at) / Fold change /veh TMEM136 (11760407_x_at) / RFU CLDN22 /// WWC2 (11732394_at) / Fold change /veh CLDN22 /// WWC2 (11732394_at) / RFU HLA-DPB1 (11760878_x_at) / Fold change /veh HLA-DPB1 (11760878_x_at) / RFU SPINT1 (11716480_a_at) / Fold change /veh SPINT1 (11716480_a_at) / RFU GAP43 (11754022_s_at) / Fold change /veh GAP43 (11754022_s_at) / RFU A4GNT (11735810_at) / Fold change /veh A4GNT (11735810_at) / RFU PRB3 (11715151_x_at) / Fold change /veh PRB3 (11715151_x_at) / RFU TUBB4B (11761932_at) / Fold change /veh TUBB4B (11761932_at) / RFU CAPN14 (11732068_a_at) / Fold change /veh CAPN14 (11732068_a_at) / RFU TMCC2 (11721928_a_at) / Fold change /veh TMCC2 (11721928_a_at) / RFU IRGQ (11745062_a_at) / Fold change /veh IRGQ (11745062_a_at) / RFU FAM174B (11720279_a_at) / Fold change /veh FAM174B (11720279_a_at) / RFU TMPRSS4 (11748680_a_at) / Fold change /veh TMPRSS4 (11748680_a_at) / RFU FAM212B (11763350_a_at) / Fold change /veh FAM212B (11763350_a_at) / RFU PLEKHG5 (11743358_a_at) / Fold change /veh PLEKHG5 (11743358_a_at) / RFU ZSCAN30 (11745921_a_at) / Fold change /veh ZSCAN30 (11745921_a_at) / RFU CMKLR1 (11741424_a_at) / Fold change /veh CMKLR1 (11741424_a_at) / RFU LOC101060620 /// MAPK8IP1 (11723275_at) / Fold change /veh LOC101060620 /// MAPK8IP1 (11723275_at) / RFU SPTSSB (11747773_x_at) / Fold change /veh SPTSSB (11747773_x_at) / RFU PRSS12 (11739890_at) / Fold change /veh PRSS12 (11739890_at) / RFU BIN1 (11741810_x_at) / Fold change /veh BIN1 (11741810_x_at) / RFU WNT11 (11732464_a_at) / Fold change /veh WNT11 (11732464_a_at) / RFU C10orf10 (11716521_a_at) / Fold change /veh C10orf10 (11716521_a_at) / RFU C5orf56 (11738089_at) / Fold change /veh C5orf56 (11738089_at) / RFU CYB561 (11721691_x_at) / Fold change /veh CYB561 (11721691_x_at) / RFU ANKRD19P (11752326_a_at) / Fold change /veh ANKRD19P (11752326_a_at) / RFU OR2T12 /// OR2T33 /// OR2T8 (11738714_s_at) / Fold change /veh OR2T12 /// OR2T33 /// OR2T8 (11738714_s_at) / RFU VCAN (11748164_a_at) / Fold change /veh VCAN (11748164_a_at) / RFU JSRP1 (11732532_at) / Fold change /veh JSRP1 (11732532_at) / RFU KRTAP10-11 (11738290_x_at) / Fold change /veh KRTAP10-11 (11738290_x_at) / RFU MYO3A (11730013_a_at) / Fold change /veh MYO3A (11730013_a_at) / RFU EBF3 (11725865_a_at) / Fold change /veh EBF3 (11725865_a_at) / RFU CAMK2N1 (11719241_x_at) / Fold change /veh CAMK2N1 (11719241_x_at) / RFU C5orf56 (11738088_a_at) / Fold change /veh C5orf56 (11738088_a_at) / RFU OLFML3 (11715873_a_at) / Fold change /veh OLFML3 (11715873_a_at) / RFU LOC100653217 /// NTM (11731650_a_at) / Fold change /veh LOC100653217 /// NTM (11731650_a_at) / RFU MAPK11 (11762145_a_at) / Fold change /veh MAPK11 (11762145_a_at) / RFU FIZ1 (11724087_x_at) / Fold change /veh FIZ1 (11724087_x_at) / RFU OASL (11726364_x_at) / Fold change /veh OASL (11726364_x_at) / RFU SOX15 (11748057_x_at) / Fold change /veh SOX15 (11748057_x_at) / RFU CD79A (11719716_a_at) / Fold change /veh CD79A (11719716_a_at) / RFU HIST1H1D (11736915_at) / Fold change /veh HIST1H1D (11736915_at) / RFU CASKIN2 (11723855_a_at) / Fold change /veh CASKIN2 (11723855_a_at) / RFU LOC730098 (11760151_x_at) / Fold change /veh LOC730098 (11760151_x_at) / RFU OR4N2 (11742367_at) / Fold change /veh OR4N2 (11742367_at) / RFU PRRT2 (11749266_a_at) / Fold change /veh PRRT2 (11749266_a_at) / RFU SNX32 (11753110_a_at) / Fold change /veh SNX32 (11753110_a_at) / RFU CDHR5 (11726645_a_at) / Fold change /veh CDHR5 (11726645_a_at) / RFU RCAN1 (11760418_a_at) / Fold change /veh RCAN1 (11760418_a_at) / RFU FAM167A (11723789_a_at) / Fold change /veh FAM167A (11723789_a_at) / RFU FAM26E (11764081_at) / Fold change /veh FAM26E (11764081_at) / RFU ISYNA1 (11749810_s_at) / Fold change /veh ISYNA1 (11749810_s_at) / RFU ACY1 (11761880_at) / Fold change /veh ACY1 (11761880_at) / RFU 11764098_at / Fold change /veh 11764098_at / RFU SAMD14 (11745864_x_at) / Fold change /veh SAMD14 (11745864_x_at) / RFU NPB (11741838_a_at) / Fold change /veh NPB (11741838_a_at) / RFU TMPRSS6 (11731388_a_at) / Fold change /veh TMPRSS6 (11731388_a_at) / RFU KRTAP10-2 (11738614_at) / Fold change /veh KRTAP10-2 (11738614_at) / RFU ARHGAP8 /// PRR5-ARHGAP8 (11727945_x_at) / Fold change /veh ARHGAP8 /// PRR5-ARHGAP8 (11727945_x_at) / RFU KRTAP5-7 /// NADSYN1 (11734609_at) / Fold change /veh KRTAP5-7 /// NADSYN1 (11734609_at) / RFU RASL12 (11751679_a_at) / Fold change /veh RASL12 (11751679_a_at) / RFU CDKN2B (11736163_a_at) / Fold change /veh CDKN2B (11736163_a_at) / RFU PRF1 (11729649_at) / Fold change /veh PRF1 (11729649_at) / RFU, ZNF638 /// ZNF638-IT1 / Fold change vs veh, ZNF638 /// ZNF638-IT1 / RFU, PANK3 / Fold change vs veh, PANK3 / RFU, SH3YL1 / Fold change vs veh, SH3YL1 / RFU, ZEB2 / Fold change vs veh, ZEB2 / RFU, NRIP1 / Fold change vs veh, NRIP1 / RFU, PTTG1IP / Fold change vs veh, PTTG1IP / RFU, CAPN2 / Fold change vs veh, CAPN2 / RFU, MED14 / Fold change vs veh, MED14 / RFU, SNORA58 / Fold change vs veh, SNORA58 / RFU, C1orf63 / Fold change vs veh, C1orf63 / RFU, LRRFIP1 / Fold change vs veh, LRRFIP1 / RFU, NDUFAF7 / Fold change vs veh, NDUFAF7 / RFU, SLC12A2 / Fold change vs veh, SLC12A2 / RFU, IBTK / Fold change vs veh, IBTK / RFU, ESF1 / Fold change vs veh, ESF1 / Fold change vs veh, TMEM50B / RFU, TAOK1 / Fold change vs veh, TAOK1 / RFU, ACBD3 / Fold change vs veh, ACBD3 / RFU, TMA16 / Fold change vs veh, TMA16 / RFU, RWDD3 / Fold change vs veh, RWDD3 / RFU, BCAT1 / Fold change vs veh, BCAT1 / RFU, EDEM3 / Fold change vs veh, EDEM3 / RFU, TMEM33 / Fold change vs veh, TMEM33 / RFU, WDR75 / Fold change vs veh, WDR75 / RFU, AHCTF1 / Fold change vs veh, AHCTF1 / RFU, TFRC / Fold change vs veh, TFRC / RFU, ZDHHC17 / Fold change vs veh, ZDHHC17 / RFU, NOM1 / Fold change vs veh, NOM1 / RFU, ARL8B / Fold change vs veh, ARL8B / RFU, ZBTB11 / Fold change vs veh, ZBTB11 / RFU, TAMM41 / Fold change vs veh, TAMM41 / RFU, KIAA1704 /// LOC100996395 / Fold change vs veh, KIAA1704 /// LOC100996395 / RFU, ING1 / Fold change vs veh, ING1 / RFU, TRMT61B / Fold change vs veh, TRMT61B / RFU, FUBP3 / Fold change vs veh, FUBP3 / RFU, TP53 / Fold change vs veh, TP53 / RFU, TNKS2 / Fold change vs veh, TNKS2 / RFU, ZFP14 / Fold change vs veh, ZFP14 / RFU, ACTR2 / Fold change vs veh, ACTR2 / RFU, PPP3R1 / Fold change vs veh, PPP3R1 / RFU, PIK3R1 / Fold change vs veh, PIK3R1 / RFU, HNRNPA1 / Fold change vs veh, HNRNPA1 / RFU, RNF170 / Fold change vs veh, RNF170 / RFU, ZNF28 / Fold change vs veh, ZNF28 / RFU, RNGTT / Fold change vs veh, RNGTT / RFU, OGT / Fold change vs veh, OGT / RFU, BRD1 / Fold change vs veh, BRD1 / RFU, MARS / Fold change vs veh, MARS / RFU, ZNF655 / Fold change vs veh, ZNF655 / RFU, FAHD1 / Fold change vs veh, FAHD1 / RFU, BDP1 / Fold change vs veh, BDP1 / RFU, LRRCC1 / Fold change vs veh, LRRCC1 / RFU, ARID1A / Fold change vs veh, ARID1A / RFU, ZNF146 / Fold change vs veh, ZNF146 / RFU, ZNF330 / Fold change vs veh, ZNF330 / RFU, GPN3 / Fold change vs veh, GPN3 / RFU, C9orf123 / Fold change vs veh, C9orf123 / RFU, N4BP2L2 / Fold change vs veh, N4BP2L2 / RFU, ARFIP1 / Fold change vs veh, ARFIP1 / RFU, FAM179B / Fold change vs veh, FAM179B / RFU, BCL10 / Fold change vs veh, BCL10 / RFU, UHRF1BP1L / Fold change vs veh, UHRF1BP1L / RFU, BET1 / Fold change vs veh, BET1 / RFU, CNOT2 / Fold change vs veh, CNOT2 / RFU, ZNF268 / Fold change vs veh, ZNF268 / Fold change vs veh, ZNF507 / RFU, DGCR2 / Fold change vs veh, DGCR2 / RFU, WDSUB1 / Fold change vs veh, WDSUB1 / Fold change vs veh, HSP90B1 /// MIR3652 / RFU, ADSS / Fold change vs veh, ADSS / RFU, GK / Fold change vs veh, GK / RFU, ZNF148 / Fold change vs veh, ZNF148 / RFU, TAF9 / Fold change vs veh, TAF9 / RFU, SLC1A5 / Fold change vs veh, SLC1A5 / RFU, SLMO2 / Fold change vs veh, SLMO2 / RFU, ABCC4 / Fold change vs veh, ABCC4 / RFU, LOC101060439 /// RAP1B / Fold change vs veh, LOC101060439 /// RAP1B / RFU, RFX7 / Fold change vs veh, RFX7 / RFU, GTPBP10 / Fold change vs veh, GTPBP10 / RFU, CNEP1R1 / Fold change vs veh, CNEP1R1 / RFU, BIVM-ERCC5 /// ERCC5 / Fold change vs veh, BIVM-ERCC5 /// ERCC5 / RFU, ILF3 / Fold change vs veh, ILF3 / RFU 11762660_at / Fold change /veh 11762660_at / RFU VCAN (11757783_s_at) / Fold change /veh VCAN (11757783_s_at) / RFU DDX43 (11728927_at) / Fold change /veh DDX43 (11728927_at) / RFU KRT8 (11758188_x_at) / Fold change /veh KRT8 (11758188_x_at) / RFU NKD1 (11759106_at) / Fold change /veh NKD1 (11759106_at) / RFU SRD5A1 (11742802_a_at) / Fold change /veh SRD5A1 (11742802_a_at) / RFU TPSAB1 /// TPSB2 (11721975_s_at) / Fold change /veh TPSAB1 /// TPSB2 (11721975_s_at) / RFU GSTM3 (11746129_a_at) / Fold change /veh GSTM3 (11746129_a_at) / RFU IL23R (11737362_x_at) / Fold change /veh IL23R (11737362_x_at) / RFU TMEM51 (11727254_a_at) / Fold change /veh TMEM51 (11727254_a_at) / RFU PIWIL2 (11732686_x_at) / Fold change /veh PIWIL2 (11732686_x_at) / RFU ORM1 (11744905_x_at) / Fold change /veh ORM1 (11744905_x_at) / RFU CCDC152 (11743942_at) / Fold change /veh CCDC152 (11743942_at) / RFU ECM1 (11717891_a_at) / Fold change /veh ECM1 (11717891_a_at) / RFU IL23R (11748794_a_at) / Fold change /veh IL23R (11748794_a_at) / RFU TNFAIP8L3 (11732012_x_at) / Fold change /veh TNFAIP8L3 (11732012_x_at) / RFU MBOAT4 (11741988_at) / Fold change /veh MBOAT4 (11741988_at) / RFU 11764193_at / Fold change /veh 11764193_at / RFU TMEM53 (11763286_at) / Fold change /veh TMEM53 (11763286_at) / RFU MAGEB2 (11727129_at) / Fold change /veh MAGEB2 (11727129_at) / RFU TMEM200A (11744735_a_at) / Fold change /veh TMEM200A (11744735_a_at) / RFU CCDC152 (11751479_a_at) / Fold change /veh CCDC152 (11751479_a_at) / RFU FAM211A (11726209_a_at) / Fold change /veh FAM211A (11726209_a_at) / RFU RGS16 (11746705_a_at) / Fold change /veh RGS16 (11746705_a_at) / RFU VCAN (11755009_s_at) / Fold change /veh VCAN (11755009_s_at) / RFU RHOB (11743442_s_at) / Fold change /veh RHOB (11743442_s_at) / RFU RGS16 (11720943_a_at) / Fold change /veh RGS16 (11720943_a_at) / RFU RGS16 (11720944_at) / Fold change /veh RGS16 (11720944_at) / RFU, VPS4B / Fold change vs veh, VPS4B / RFU, CREB1 / Fold change vs veh, CREB1 / RFU, DNAJC13 / Fold change vs veh, DNAJC13 / RFU, GNAQ / Fold change vs veh, GNAQ / RFU, CDK5R1 / Fold change vs veh, CDK5R1 / RFU, ZRANB3 / Fold change vs veh, ZRANB3 / RFU, CUL4A / Fold change vs veh, CUL4A / RFU, CCNY / Fold change vs veh, CCNY / RFU, UFL1 / Fold change vs veh, UFL1 / RFU, COG3 / Fold change vs veh, COG3 / RFU, DIAPH2 / Fold change vs veh, DIAPH2 / RFU, SKA2 / Fold change vs veh, SKA2 / RFU, AFF3 / Fold change vs veh, AFF3 / RFU, LMF1 / Fold change vs veh, LMF1 / RFU, IPO11 / Fold change vs veh, IPO11 / RFU, DFFB / Fold change vs veh, DFFB / RFU, FOXP1 / Fold change vs veh, FOXP1 / RFU, CARD8 / Fold change vs veh, CARD8 / RFU, STRN3 / Fold change vs veh, STRN3 / RFU, ADK / Fold change vs veh, ADK / RFU, RASSF2 / Fold change vs veh, RASSF2 / RFU, WIPF1 / Fold change vs veh, WIPF1 / RFU, LARP1B / Fold change vs veh, LARP1B / RFU, RASA1 / Fold change vs veh, RASA1 / RFU, RB1 / Fold change vs veh, RB1 / RFU, PPFIA1 / Fold change vs veh, PPFIA1 / RFU, MAT2A / Fold change vs veh, MAT2A / RFU, CCT5 / Fold change vs veh, CCT5 / RFU, WDR92 / Fold change vs veh, WDR92 / RFU, CUX1 / Fold change vs veh, CUX1 / RFU, TTC7A / Fold change vs veh, TTC7A / RFU, TMEM135 / Fold change vs veh, TMEM135 / RFU, DEPTOR / Fold change vs veh, DEPTOR / RFU, CPM / Fold change vs veh, CPM / RFU, DNAJB6 / Fold change vs veh, DNAJB6 / RFU, CACNA2D3 / Fold change vs veh, CACNA2D3 / RFU, DTX4 / Fold change vs veh, DTX4 / RFU, TFCP2 / Fold change vs veh, TFCP2 / RFU, GMCL1 /// GMCL1P1 / Fold change vs veh, GMCL1 /// GMCL1P1 / RFU, AEBP2 / Fold change vs veh, AEBP2 / RFU, SNHG1 /// SNORD22 /// SNORD25 /// SNORD26 /// SNORD27 /// SNORD28 /// SNORD29 /// SNORD31 / Fold change vs veh, SNHG1 /// SNORD22 /// SNORD25 /// SNORD26 /// SNORD27 /// SNORD28 /// SNORD29 /// SNORD31 / Fold change (Aza/veh), C12orf56 (ProbeSet 11735607_a_at) / Fold change (ACY-1035/veh), C12orf56 (ProbeSet 11735607_a_at) / Fold change (Aza/veh), FGFR1OP (ProbeSet 11751329_s_at) / Fold change (ACY-1035/veh), FGFR1OP (ProbeSet 11751329_s_at) / Fold change (Aza/veh), VPS36 (ProbeSet 11739960_a_at) / Fold change (ACY-1035/veh), VPS36 (ProbeSet 11739960_a_at) / RFU SYPL1 (11715823_x_at) / Fold change /veh SYPL1 (11715823_x_at) / RFU IGFBP7 (11715501_s_at) / Fold change /veh IGFBP7 (11715501_s_at) / RFU REEP3 (11722064_at) / Fold change /veh REEP3 (11722064_at) / RFU IGLL1 (11728026_x_at) / Fold change /veh IGLL1 (11728026_x_at): dose or concentration left out as unconfirmed
Conditions: ProbeSet 11739106_a_at; LIST B

Question: How did the “Fold change vs veh, TMEM33” value turn out when `Nc1ncn([C@@H]2O[C@H](CO)[C@@H](O)[C@H]2O)c(=O)n1` [azacitidine] was run?
Answer: 0.88
